Laboratory results: patent publication US11181533B2, “Diagnosing and treating Alzheimer's disease” (DIGNITY HEALTH, priority 2013, dated 2021)
Where two headings read alike, the source gives them in different places. No end group written: not given here.

Columns and labels:
[1] = system: SAMP8 mice and APP transgenic mice; settings: intranasal administration, cited from earlier work
Aβ induced cell death = assay: Protection against Aβ induced cell death; format: cell-based; settings: by enhancing mitochondrial function

Pituitary Adenylate Cyclase Activating Polypeptide (HSDGIFTDSYSRYRKQMAVKKYLAAVLGKRYKQRVKNK; ends and bridges not checked; UniProt P18509 132-169, looked up) [PACAP, small peptide with either 38 amino acids in full length form (PACAP-38), or 27 amino acids in short form (PACAP-27); neurotrophin]
Novel object recognition ([1]; APP transgenic mice): enhances Novel object recognition
Novel object recognition ([1]; SAMP8 mice): enhances Novel object recognition
protection against Aβ induced cell death (Aβ induced cell death): protects against Aβ induced cell death
